Measured values: patent US20240226117A1, “TREATMENT OF CONGENITAL ADRENAL HYPOPLASIA” (ReveraGen BioPharma, Inc., priority 2021, published 2024)

Key:
[1] = system: DMD participants; test: Prespecified safety evaluation: height percentile for age and BMI z-score; assay type: in vivo, human
Method: As with the […] comparators, group-matching criteria were prespecified in the iSAP, and 2 independent statisticians carried out the participant matching. […] There was no corresponding 12-month assessment in vamorolone-treated participants. (Assessments of vamorolone-treated trial participants were 0, 3, 6, and 18 months). Standing height and weight were assessed at each study visit. Height z-score, body mass index (BMI: kg/m^2), and BMI z-score were calculated centrally. AE reporting was done per protocol in the vamorolone trials. The current study is the first to evaluate the longer-term tolerability, efficacy, and safety of vamorolone in DMD. […] Given the variable timing of dose escalations, it was prespecified that initial analyses of drug-related efficacy and safety would be limited to those participants who had 18 months of treatment with 2.0 mg/kg/day vamorolone or more (dose group C+dose group D: n=23). Outcomes for these participants were compared to a group-matched cohort from the […] over 18 months (corticosteroid-naïve, n=19: corticosteroid-treated, n=68). Participants were matched for age and treatment period (+1 month), matching criteria were prespecified in the statistical analysis plan. Two independent statisticians carried out the matching. […] Participants in the corticosteroid-treated […] group were treated for at least 18 months, but the total duration, dose, and regimens varied. Statistical analyses were done on paired longitudinal outcome data using an analysis of covariance (ANCOVA) approach with change from baseline (VBP15-002) to month 18 (midpoint of VBP15-LTE). Baseline response and age were included as covariates. For the vamorolone-treated participants, age was calculated as (date of informed consent minus birthdate)/365.25. For the DNHS participants, age was calculated as (date of baseline visit used minus birthdate)/365.25. The baseline visit for a DNHS participant was the first visit. […] Timed function tests were analyzed as velocity scores to limit the impact of participants who could not perform the test (velocity=0). Velocity measures are variance-stabilizing transformations, suppressing extreme raw outliers from raw values in seconds; these help with distributional assumptions of the statistical models/tests used. Raw data (seconds) are also reported. Velocity scores for […] (event/second), TTRW (meters/second), and […] (event/second) were inputted as 0 at the first response missing due to inability to perform the test. All other data were observed values only, without imputation. No adjustments for multiplicity on inferential statistics were specified in the iSAP.

[2] = system: ambulant boys with DMD; conditions: in vivo
[3] = VBP15-002 Phase IIa multiple ascending dose trial: pharmacokinetics and safety; assay type: in vivo, human; conditions: DMD patients
Method: Vamorolone clinical studies have been conducted in adult male volunteers and boys with DMD, a disorder in which skeletal muscle is in a chronic inflammatory state. Two consecutive open-label dose-ranging studies in 48 DMD patients aged 4 to <7 years (corticosteroid-naïve) were conducted (Phase IIa, VBP15-002; Phase IIa, VBP15-003). Doses were tested over a 24-fold dose range (0.25, 0.75, 2.0, and 6.0 mg/kg/day), with 12 participants per group. The first multiple ascending dose (MAD) cohort trial-tested pharmacokinetics (PK) and safety for 2 weeks of drug dosing followed by a 2-week washout (VBP15-002). […] All DMD participants completed the MAD study and then continued on the same dose for a 24-week dose-finding (efficacy and safety) extension study (VBP15-003).
Three consecutive clinical trials of vamorolone treatment of DMD were conducted by CINRG (VBP15-002 [NCT02760264]: VBP15-003 [NCT02760277]: VBP15-LTE [NCT03038399]). A total of 48 participants (ages 4 to <7 years) were initially enrolled into VBP15-002, with trial participants completing month 12 of the 24-month VBP15-LTE study.
VBP15-002 (Phase IIa: two weeks on the drug, two weeks off drug) enrolled 48 corticosteroid-naïve participants with DMD, and all 48 participants completed the study and enrolled into VBP15-003 (Phase IIa extension: 24-week treatment). […]

[4] = 18 months, vamorolone 2.0 or 6.0 mg/kg/day, DNHS corticosteroid doses and regimens varied
[5] = vamorolone 18 months versus corticosteroid-naïve DNHS, ANCOVA

C[C@@H]1C[C@H]2[C@@H]3CCC4=CC(=O)C=C[C@]4(C)C3=CC[C@]2(C)[C@@]1(O)C(=O)CO [Vamorolone, 17α,21-dihydroxy-16α-methylpregna-1,4,9(11)-triene-3,20-dione]
Mean BMI z-score, 18-month value (SD) [1, 4]: 1.46 (0.62) | Mean BMI z-score, change from baseline (SD) [1, 4]: 0.411 (0.615) | Mean height percentile for age, 18-month value (SD) [1, 4]: 35.24 (29.82) | Mean BMI z-score, change from baseline (SD) ([1]; 18 months, vamorolone 2.0 or 6.0 mg/kg/day, DNHS corticosteroid doses and regimens varied, listed as vamorolone): 0.41 | LS Mean change in height percentiles for age ([1]; DMD children treated with vamorolone, N = 22, 18 months treatment): +6.9 | BMI change from baseline to 18 months of treatment ([1]; original dose group B (0.75 mg/kg/day, escalated in LTE)): 0.5 kg/m^2 | BMI change from baseline to 18 months of treatment ([1]; original dose group C (2.0 mg/kg/day)): 1.11 kg/m^2 | BMI change from baseline to 18 months of treatment ([1]; original dose group D (6.0 mg/kg/day)): 2.55 kg/m^2 | Mean height percentile for age, LS mean difference (SE) ([1]; vamorolone 18-month treatment versus prednisone trial 12-month treatment, ANCOVA): 10.37 | Mean BMI z-score, LS mean difference (SE) [1, 5]: 0.899 (0.204) | Mean height percentile for age, LS mean difference (SE) [1, 5]: 6.72 (3.48) | growth stunting (mean change in height percentile versus corticosteroid-treated DNHS) ([1]; vamorolone treatment group): no evidence of growth stunting | Mean height percentile for age, LS mean difference (SE) ([1]; vamorolone versus corticosteroid-treated DNHS, 18 months, ANCOVA): 15.86 | clinically relevant psychiatric events, subjects [2]: no vamorolone-treated subjects | moderate/severe behavior problems, subjects ([2]; male, human, 24 weeks): 1.7% | dose-limiting toxicities ([3]; 0.25-6.0 mg/kg/day, 2 weeks of dosing): no dose-limiting toxicities | drug accumulation ([3]; day 1 vs day 14): no drug accumulation
